Source: the NIST ThermoML archive (doi:10.1021/je200681k)
± gives the expanded uncertainty stated by the source.

Assays:
[1] = Molar enthalpy of transition or fusion; settings: Crystal; DSC
[2] = Crystal; DTA

SMILES | Molar enthalpy of transition or fusion [1] | Normal melting temperature [2]
O=C(O)c1ccccc1 [benzoic acid] | 4.47 ± 0.172 kcal/mol | 122.93 ± 0.53 °C
CC(CC(=O)O)CC(=O)O [3-methylpentanedioic acid] | 7.41 ± 0.335 kcal/mol | 85.46 ± 0.53 °C
O=C(O)CCCCCC(=O)O [1,7-heptanedioic acid] | 6.88 ± 0.287 kcal/mol | 104.2 ± 0.53 °C
CC(C(=O)O)C(C)C(=O)O (stereo not drawn) [2,3-dimethyl-1,4-butanedioic acid] | 4.04 ± 0.167 kcal/mol | 121.33 ± 0.53 °C
